Assay results published in the NIST ThermoML archive (doi:10.1021/je700260f).

Conditions: 293.15 K, Liquid, Vibrating tube method

FC(C(F)(F)F)C(F)(F)F [1,1,1,2,3,3,3-heptafluoropropane]
Conditions	mass density [kg/m3]
19492 kPa	1505.8
19631 kPa	1506.6
19665 kPa	1506.5
19699 kPa	1506.6
19732 kPa	1506.9
19762 kPa	1506.9
19806 kPa	1507.1
19844 kPa	1507.3
19868 kPa	1507.3
19906 kPa	1507.5
19940 kPa	1507.7
19974 kPa	1507.8
20007 kPa	1507.9
20047 kPa	1508
20080 kPa	1508.1
20109 kPa	1508.3
20152 kPa	1508.4
20190 kPa	1508.6
20215 kPa	1508.7
20258 kPa	1508.8
20302 kPa	1508.9
20335 kPa	1509.2
20375 kPa	1509.2
20404 kPa	1509.3
20434 kPa	1509.5
20478 kPa	1509.6
20517 kPa	1509.9
20546 kPa	1510
20591 kPa	1510.1
20630 kPa	1510.1
20659 kPa	1510.3
20702 kPa	1510.5
20732 kPa	1510.6
20761 kPa	1510.6
20802 kPa	1510.8
20843 kPa	1511
20873 kPa	1511
20907 kPa	1511.2
20982 kPa	1511.5
21017 kPa	1511.6
21048 kPa	1511.8
21094 kPa	1511.9
21134 kPa	1512
21164 kPa	1512.1
21209 kPa	1512.3
21245 kPa	1512.4
21279 kPa	1512.5
21314 kPa	1512.7
21359 kPa	1512.8
21389 kPa	1513
21458 kPa	1513.1
21488 kPa	1513.2
21669 kPa	1513.9
21699 kPa	1513.9
21739 kPa	1514.2
21927 kPa	1514.8
21967 kPa	1515
22009 kPa	1515.2
22034 kPa	1515.3
22076 kPa	1515.4
22122 kPa	1515.5
22152 kPa	1515.7
22194 kPa	1515.8
22230 kPa	1515.9
22261 kPa	1516.2
22291 kPa	1516.2
22322 kPa	1516.3
22358 kPa	1516.3
22404 kPa	1516.5
22440 kPa	1516.7
22476 kPa	1516.8
22522 kPa	1516.9
22548 kPa	1517.1
22584 kPa	1517.1
22625 kPa	1517.4
22661 kPa	1517.5
22702 kPa	1517.6
22744 kPa	1517.7
22781 kPa	1517.9
22813 kPa	1518
22849 kPa	1518.2
22886 kPa	1518.3
22923 kPa	1518.4
22959 kPa	1518.6
23001 kPa	1518.7
23042 kPa	1518.8
23072 kPa	1518.8
23118 kPa	1519
23154 kPa	1519.1
23191 kPa	1519.3
23228 kPa	1519.5
23271 kPa	1519.7
23308 kPa	1519.7
23350 kPa	1519.8
23392 kPa	1520
23424 kPa	1520.1
23466 kPa	1520.2
23513 kPa	1520.5
23540 kPa	1520.6
23577 kPa	1520.5
23615 kPa	1520.7
23648 kPa	1520.9
